Consider two compounds from patent US20140057842A1, “COMPOSITIONS AND METHODS FOR CELL HOMING AND ADIPOGENESIS” (The Trustees of Columbia University in the City of New York, priority 2010, published 2014).

For experiment [1], the system named is adipocyte stem cells (ASCs). As to the kind of experiment: Adipogenesis of adipocyte stem cells treated with EGFR antagonist (marker expression, glycerol and leptin contents). The conditions noted are these: 50 ng/mL in adipogenic medium. Format: cell-based. The source says:
Together, the adipogenic differentiation capacity of ASCs was restored to a similar level to without HSC co-culture.

Experiment [2] concerns hADSCs. As to the kind of experiment: Lipid staining / brightfield images of hADSCs four weeks post-treatment. The conditions noted are these: ADM plus Pyrintegrin, compared with ADM alone. Format: cell-based, human. The procedure:
Brightfield images were produced four weeks post-treatment of hADSCs with: (A) ADM; (B) ADM+Inh1; (C) ADM+Inh2; and (D) ADM+Inh1, 2 (see e.g., FIG. 6 A-D).
Lipid staining was performed four weeks post-treatment of hADSCs with: (A) ADM; and (B) ADM plus Pyrintegrin (ADM+Pyrintegrin).

The subject of experiment [3] is hADSCs. As to the kind of experiment: Adiponectin content of hADSCs at two and four weeks post-treatment. The settings on record: ADM plus 2 μM Pyrintegrin. Format: cell-based, human. The procedure: At two and four weeks post-treatment, Adiponectin content was measure in hADSCs treated with: control medium; adipogenic differentiation medium (ADM); ADM plus 10 μM of Notch gamma Secretase Inhibitor (Inh1) (ADM+Inh1); ADM plus 10 μM of MAPK Inhibitor (Inh2) (ADM+Inh2), and ADM plus 10 μM of Inh1 and Inh2 (ADM+Inh1, 2).
At two and four weeks post-treatment, Adiponectin content was measured in hADSCs treated with: control medium; adipogenic differentiation medium (ADM); and ADM plus 2 μM of Pyrintegrin (ADM+Drug).

For a further experiment, the system named is TGFβ/Activin pathway. As to the kind of experiment: Western blot analysis of hADSCs 1-hour post-treatment, TGFβ/Activin pathway. Format: cell-based, human. The settings on record: 2 μM with ADM or alone. On the procedure: (§1) Western blot analysis was performed 1-hour post-treatment in hADSCs treated with: control medium (Control); adipogenic differentiation medium (ADM); ADM plus 2 μM of Pyrintegrin (ADM+Drug); and Pyrintegrin alone (Drug).
Background: In western blotting, separated proteins are transferred to a membrane and probed.

Experiment [4] concerns hADSCs. As to the kind of experiment: C/EBPα expression of hADSCs followed for 28 days. Format: cell-based, human. The conditions noted are these: ADM plus 2 μM Pyrintegrin, compared with ADM alone. The procedure: Change in C/EBPα expression of hADSCs were followed for 28 days. hADSCs were treated with: control medium; adipogenic differentiation medium (ADM); ADM plus 10 μM of Notch gamma Secretase Inhibitor (Inh1) (ADM+Inh1); ADM plus 10 μM of MAPK Inhibitor (Inh2) (ADM+Inh2); and ADM plus 10 μM of Inh1 and Inh2 (ADM+Inh1, 2).
C/EBPα expression was measured for 28 days in hADSCs treated with: control medium; adipogenic differentiation medium (ADM); and ADM plus 2 μM of Pyrintegrin (ADM+Pyrintegrin).

The subject of experiment [5] is hADSCs. As to the kind of experiment: Glycerol content of hADSCs at two and four weeks post-treatment. Format: cell-based, human. The conditions noted are these: ADM plus 2 μM Pyrintegrin. On the procedure: At two and four weeks post-treatment, Glycerol content was measured in hADSCs treated with: control medium; adipogenic differentiation medium (ADM); and ADM plus 2 μM of Pyrintegrin (ADM+Drug).

Experiment [6] relates to hADSCs. As to the kind of experiment: PPARγ expression of hADSCs followed for 28 days. Format: cell-based, human. The settings on record: ADM plus 2 μM Pyrintegrin, compared with ADM alone. On the procedure: Change in PPARγ expression of hADSCs were followed for 28 days. hADSCs were treated with: control medium; adipogenic differentiation medium (ADM); ADM plus 10 μM of Notch gamma Secretase Inhibitor (Inh1) (ADM+Inh1); ADM plus 10 μM of MAPK Inhibitor (Inh2) (ADM+Inh2); and ADM plus 10 μM of Inh1 and Inh2 (ADM+Inh1, 2).
PPARγ expression was measured for 28 days in hADSCs treated with: control medium; adipogenic differentiation medium (ADM); and ADM plus 2 μM of Pyrintegrin (ADM+Pyrintegrin).

For experiment [7], the system named is hADSCs. As to the kind of experiment: PPARγ and C/EBPα gene expression of hADSCs four days post-treatment with Pyrintegrin without ADM. The conditions noted are these: control medium plus 2 μM or 10 μM Pyrintegrin. Format: cell-based, human. On the procedure: PPARγ and C/EBPα gene expression was measured at four days post-treatment in hADSCs treated with: control medium (Control); control medium plus 2 μM of Pyrintegrin (Control+Drug 2 μM); control medium plus 10 μM of Pyrintegrin (Control+Drug 10 μM) and adipogenic medium (ADM).

The subject of another experiment is BMP pathway. As to the kind of experiment: Western blot analysis of hADSCs 1-hour post-treatment, phosphorylation of Smad1/5/8. Format: cell-based, human. The settings on record: 2 μM with ADM or alone. The procedure:
as §1

In experiment [8] the test system is hADSCs. As to the kind of experiment: Leptin content of hADSCs at two and four weeks post-treatment. Format: cell-based, human. The settings on record: ADM plus 2 μM Pyrintegrin. The procedure: At two and four weeks post-treatment, Leptin content was measured in hADSCs treated with: control medium; adipogenic differentiation medium (ADM); ADM plus 10 μM of Notch gamma Secretase Inhibitor (Inh1) (ADM+Inh1); ADM plus 10 μM of MAPK Inhibitor (Inh2) (ADM+Inh2); and ADM plus 10 μM of Inh1 and Inh2 (ADM+Inh1, 2).
At two and four weeks post-treatment, Leptin content was measured in hADSCs treated with: control medium; adipogenic differentiation medium (ADM); and ADM plus 2 μM of Pyrintegrin (ADM+Drug).

For the compound “EGF: EGF added at 50 ng/mL to the adipogenic medium (NSDSECPLSHDGYCLHDGVCMYIEALDKYACNCVVGYIGERCQYRDLKWWELR; UniProt P01133 971-1023, looked up)”, in experiment [1], the “adipogenesis of ASCs on addition of EGF to the adipogenic medium” value is on record as “further inhibited adipogenesis”.
Consider `O=S(=O)(NCC1CC1)c1ccc(Nc2nccc(N3CCCc4cc(O)ccc43)n2)cc1` [Pyrintegrin, N-(Cyclopropylmethyl)-4-(4-(6-hydroxy-3,4-dihydroquinolin-1-(2H)-yl)pyrimidin-2-ylamino)benzenesulfonamide], for which, in the experiment with hADSCs [2], the “lipid accumulation in hADSCs” value is recorded as “more potent in inducing lipid accumulation”. The “secretion of Adiponectin cytokine by hADSCs” value in the experiment on hADSCs [3] is listed as “enhanced the secretion of Adiponectin cytokine”. In addition, the TGFβ/Activin pathway inhibition result in the experiment with TGFβ/Activin pathway is “does not target the TGFβ/Activin pathway”. For the same compound, the “C/EBPα expression in hADSCs” value in the experiment on hADSCs [4] was “more potent in inducing C/EBPα expression”. In the experiment on hADSCs [5], the “secretion of Glycerol by hADSCs” value is reported as “enhanced the secretion of Glycerol”. In addition, in the experiment on hADSCs [6], the “PPARγ expression in hADSCs” value is “more potent in inducing PPARγ expression”. The “adipogenic differentiation of hADSCs (PPARγ and C/EBPα gene expression)” value in the experiment with hADSCs [7] was “can induce hADSCs towards an adipogenic differentiation pathway”. In addition, in the experiment on BMP pathway, the “phosphorylation of Smad1/5/8 (BMP pathway)” value is listed as “prevents the phosphorylation of Smad1/5/8”. Besides, the “secretion of Leptin cytokine by hADSCs” value in the experiment with hADSCs [8] is listed as “enhanced the secretion of Leptin cytokine”.
